A short description of data set [1]: Relaxivity measurements at 1.41 T in human plasma. In kind it is physicochemical. The conditions noted are these: 37° C., normalized to Gd. As to the method: The T1 relaxation times were determined using the standard inversion recovery (IR) method with a fixed relaxation delay of at least 5×T1. The variable inversion time (TI) was calculated automatically by the standard software of the MiniSpec mq60 (8 steps). The T2 measurements were performed by using a Carr-Purcell-Meiboom-Gill (CPMG) pulse sequence, applying a relaxation delay of at least 5×T1.
Each relaxivity measurement was performed using three different Gd concentrations (3 concentrations between 0.05 and 2 mM).
(§1) The relaxivities n (where i=1, 2) were calculated based on the measured relaxation rates Ri in water and plasma: […]

The subject of data set [2] is freshly isolated rat hepatocytes. Kind of data set: Uptake into freshly isolated rat hepatocytes. The conditions noted are these: for Uptake rat hepatocytes: 100 μmol Gd/L, 10 min, 37° C., relative to RC1 (Gd-EOB-DTPA); for Inhibition Rifampicine: rat hepatocyte uptake, test item and Rifampicine 1:1, each 100 μM.
Data set [3] is described as follows: Partition coefficient (log P butanol/buffer). The format is physicochemical. The conditions noted are these: 1-butanol / 50 mM Tris-HCl, pH 7.4, room temperature.
Data set [4] in a line: Relaxivity measurements at 1.41 T in water. In kind it is physicochemical. The conditions noted are these: 37° C., normalized to Gd. As to the method: Relaxivity measurements at 1.41 T were performed using a MiniSpec mq60 spectrometer (Bruker Analytik, Karlsruhe, Germany) operating at a resonance frequency of 60 MHz and a temperature of 37° C. The T1 relaxation times were determined using the standard inversion recovery (IR) method with a fixed relaxation delay of at least 5×T1. The variable inversion time (TI) was calculated automatically by the standard software of the MiniSpec mq60 (8 steps). The T2 measurements were performed by using a Carr-Purcell-Meiboom-Gill (CPMG) pulse sequence, applying a relaxation delay of at least 5×T1.
Each relaxivity measurement was performed using three different Gd concentrations (3 concentrations between 0.05 and 2 mM). […] Human plasma preparation: For each experiment fresh blood was taken from a volunteer using 10 mL citrate-tubes (Sarstedt S-Monovette 02.1067.001, 10 mL, Citrate). The 10 mL citrate-tubes were carefully inverted 10 times to mix blood and anticoagulant and centrifuged for 15 min at 1811 g at RT (Eppendorf, Centrifuge 5810R).
as §1

Data set [5] is described as follows: Water solubility in aqueous buffer. The conditions noted are these: aqueous buffer 10 mM Tris-HCl, pH 7.4, 20° C. How it is done:
The solid compounds were added stepwise to the buffer solution. More substance is added once all the suspended material is dissolved until an equilibrium between undissolved and dissolved substance is reached. The suspension was mixed using a shaker (Heidolph Reax 2000) and treated 5 min in an ultrasound bath (Bandelin, Sonorex Super RK255H).

For the next data set, the target named is T1, OATP1B1 (Homo sapiens, UniProt Q9Y6L6).
T1 sequence (Q9Y6L6 1-691): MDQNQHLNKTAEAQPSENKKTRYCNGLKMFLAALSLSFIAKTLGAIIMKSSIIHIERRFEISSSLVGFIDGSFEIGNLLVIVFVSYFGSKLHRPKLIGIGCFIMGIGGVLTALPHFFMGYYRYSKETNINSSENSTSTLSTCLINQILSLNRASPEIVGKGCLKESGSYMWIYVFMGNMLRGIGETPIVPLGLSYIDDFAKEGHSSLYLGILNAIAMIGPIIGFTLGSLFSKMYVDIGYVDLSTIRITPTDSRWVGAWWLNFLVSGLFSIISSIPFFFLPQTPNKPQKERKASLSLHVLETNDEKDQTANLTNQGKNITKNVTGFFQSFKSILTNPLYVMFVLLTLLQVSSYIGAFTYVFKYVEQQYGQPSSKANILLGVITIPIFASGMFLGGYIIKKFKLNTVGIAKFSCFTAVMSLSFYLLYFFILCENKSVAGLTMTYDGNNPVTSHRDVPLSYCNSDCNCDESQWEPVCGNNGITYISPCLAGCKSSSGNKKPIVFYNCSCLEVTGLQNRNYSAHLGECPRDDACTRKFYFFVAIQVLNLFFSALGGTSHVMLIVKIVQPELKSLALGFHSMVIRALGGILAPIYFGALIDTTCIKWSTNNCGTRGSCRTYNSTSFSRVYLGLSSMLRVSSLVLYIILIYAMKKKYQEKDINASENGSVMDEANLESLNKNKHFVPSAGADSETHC
Kind of data set: Uptake into stable transfected OATP1B1 HEK 293 cells. In kind it is cell-based. To be noted: for Uptake into OATP1B1-HEK 293 cells: 40 min incubation, relative to RC1 (Gd-EOB-DTPA); for Inhibition Rifampicine: uptake into OATP1B1-HEK 293 cells. As to the method: (§2) Cryopreserved cells were shortly thawed in water bath and diluted in 10 mL warm culture medium (37° C.). After medium change the cells were grown for 3d in a 25 cm^2 cell culture flask. After 3 to 5d the cells were transferred into 75 cm^2 flasks. […] All test items were prepared in transport buffer at a final concentration of 100 M from stock solutions (180 to 500 mM concentration). The OATP1B1 HEK 293 cells were incubated with test solutions (test item in transport buffer 500 L) for 40 min on a thermoshaker without shaking (PHMP, Fa. Grant Bio). Triplicates were performed for each test item. After incubation the cells were washed with 2 mL of cold PBS (+) buffer (Dulbeccos PBS+, Fa. Gibco). […] As a reference standard Gd-EOB-DTPA (gadoxetate) is used in the same well plate.

The target of the next data set is T2, OATP1B3 (Homo sapiens, UniProt Q9NPD5).
T2 sequence (Q9NPD5 1-702): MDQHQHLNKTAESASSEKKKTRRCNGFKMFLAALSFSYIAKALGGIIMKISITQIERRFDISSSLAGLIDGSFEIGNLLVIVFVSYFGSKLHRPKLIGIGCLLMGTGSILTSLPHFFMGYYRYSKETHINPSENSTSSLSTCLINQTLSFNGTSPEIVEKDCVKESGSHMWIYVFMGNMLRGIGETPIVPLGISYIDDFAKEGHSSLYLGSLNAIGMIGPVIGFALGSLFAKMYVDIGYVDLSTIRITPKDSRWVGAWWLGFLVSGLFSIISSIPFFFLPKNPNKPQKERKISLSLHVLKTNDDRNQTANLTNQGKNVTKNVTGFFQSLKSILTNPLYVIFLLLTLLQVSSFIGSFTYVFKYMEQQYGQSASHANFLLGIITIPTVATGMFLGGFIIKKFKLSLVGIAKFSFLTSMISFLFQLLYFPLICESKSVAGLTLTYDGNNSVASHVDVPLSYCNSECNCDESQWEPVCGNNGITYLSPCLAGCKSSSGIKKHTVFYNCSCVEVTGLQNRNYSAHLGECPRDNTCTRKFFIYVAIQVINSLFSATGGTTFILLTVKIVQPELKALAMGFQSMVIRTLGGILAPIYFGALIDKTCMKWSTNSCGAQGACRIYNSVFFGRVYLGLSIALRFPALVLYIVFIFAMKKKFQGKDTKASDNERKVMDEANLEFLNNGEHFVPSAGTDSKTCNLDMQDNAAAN
Nature of the data set: Uptake into stable transfected OATP1B3 HEK 293 cells. The format is cell-based. To be noted: for Uptake into OATP1B3-HEK 293 cells: 40 min incubation, relative to RC1 (Gd-EOB-DTPA); for Inhibition Rifampicine: uptake into OATP1B3-HEK 293 cells. As to the method:
as §2, with “100 µM” for “100 M”, “The OATP1B3” for “The OATP1B1”, “500 μL)” for “500 L)”

Some results are limits rather than exact numbers.

`CCOCCOCCOCCOc1ccc(C[C@@H](C(=O)O)N2CCN(CC(=O)[O-])CCN(CC(=O)[O-])CCN(CC(=O)[O-])CC2)c(OCCOCCOCCOCC)c1.[Gd+3]` [Example 40, gadolinium 2,2′,2″-{10-[(1S)-2-(2,4-bis {2-[2-(2-ethoxyethoxy)ethoxy]ethoxy}phenyl)-1-carboxyethyl]-1,4,7,10-tetraazacyclododecane-1,4,7-triyl}triacetate] displayed a r1 human plasma in data set [1] of 7.3 L/mmol/s. For the same molecule, in data set [2], the Uptake rat hepatocytes was 20 % of RC1 and the “Inhibition Rifampicine” value amounted to 88 % inhibition. In addition, in data set [3], the “Log P (partition coefficient butanol/buffer)” value was −1.43. In data set [4], this molecule had a r1 water of 5.4 L/mmol/s.

Consider `CCCCOc1ccc(CCCC[C@@H](C(=O)O)N2CCN([C@@H](CO)C(=O)[O-])CCN([C@@H](CO)C(=O)[O-])CCN([C@@H](CO)C(=O)[O-])CC2)cc1.[Gd+3]` [Example 9, gadolinium (2S,2′S,2″S)-2,2′,2″-{10-[(1S)-5-(4-butoxyphenyl)-1-carboxypentyl]-1,4,7,10-tetraazacyclododecane-1,4,7-triyl}tris(3-hydroxypropanoate)], for which the Solubility in data set [5] is 2 mM. Further, in data set [2], the Uptake rat hepatocytes was 54 % of RC1 and the “Inhibition Rifampicine” value is on record as 46 % inhibition. Also, on OATP1B1, the “Uptake into OATP1B1-HEK 293 cells” value was 498 % of RC1 and the “Inhibition Rifampicine” value worked out at 73 % inhibition. Further, the “Log P (partition coefficient butanol/buffer)” value in data set [3] amounted to 0.26. Moreover, at OATP1B3, the “Uptake into OATP1B3-HEK 293 cells” value was 124 % of RC1 and the “Inhibition Rifampicine” value was found to be 95 % inhibition.

In data set [1], `CCOCCOCCOCCOc1ccc(C[C@@H](C(=O)O)N2CCN(CC(=O)[O-])CCN(CC(=O)[O-])CCN(CC(=O)[O-])CC2)cc1.[Gd+3]` [Example 11, gadolinium 2,2′,2″-{10-[(1S)-1-carboxy-2-(4-{2-[2-(2-ethoxyethoxy)ethoxy]ethoxy}phenyl)ethyl]-1,4,7,10-tetraazacyclododecane-1,4,7-triyl}triacetate] gave a r1 human plasma of 6.3 L/mmol/s. Also, in data set [2], the Uptake rat hepatocytes was 39 % of RC1 and the “Inhibition Rifampicine” value amounted to 93 % inhibition. At OATP1B1, the “Uptake into OATP1B1-HEK 293 cells” value is reported as 154 % of RC1 and the “Inhibition Rifampicine” value was 40 % inhibition. Further, the “Log P (partition coefficient butanol/buffer)” value in data set [3] is on record as −1.68. Moreover, on OATP1B3, the “Uptake into OATP1B3-HEK 293 cells” value is 16 % of RC1 and the “Inhibition Rifampicine” value was 73 % inhibition. Moreover, the r1 water in data set [4] stood at 4.3 L/mmol/s.

`CCOc1ccc(CCCC[C@@H](C(=O)O)N2CCN(CC(=O)[O-])CCN(CC(=O)[O-])CCN(CC(=O)[O-])CC2)cc1.[Gd+3]` [Example 27, gadolinium 2,2′,2″-{10-[(1S)-1-carboxy-5-(4-ethoxyphenyl)pentyl]-1,4,7,10-tetraazacyclo-dodecane-1,4,7-triyl}triacetate] registered a Solubility in data set [5] of over 9 mM. Besides, in data set [2], the Uptake rat hepatocytes is 69 % of RC1 and the “Inhibition Rifampicine” value is reported as 98 % inhibition. On OATP1B1, the “Uptake into OATP1B1-HEK 293 cells” value is reported as 284 % of RC1 and the “Inhibition Rifampicine” value turned out to be 93 % inhibition. In data set [3], the “Log P (partition coefficient butanol/buffer)” value is reported as −0.41. In addition, on OATP1B3, the “Uptake into OATP1B3-HEK 293 cells” value was 24 % of RC1 and the “Inhibition Rifampicine” value was 96 % inhibition.

Take `CCOCCOCCOc1ccc(CCC[C@@H](C(=O)O)N2CCN([C@H](CO)C(=O)[O-])CCN([C@H](CO)C(=O)[O-])CCN([C@@H](CO)C(=O)[O-])CC2)cc1.[Gd+3]` [Example 49, gadolinium (2R,2′R)-2,2′-{7-[(1S)-1-carboxy-4-{4-[2-(2-ethoxyethoxy)ethoxy]phenyl}butyl]-10-[(1S)-1-carboxylato-2-hydroxyethyl]-1,4,7,10-tetraazacyclododecane-1,4-diyl}bis(3-hydroxypropanoate)]: the Solubility in data set [5] is over 18 mM. Also, the “Inhibition Rifampicine” value on OATP1B1 was determined as 71 % inhibition; on OATP1B3, 94 % inhibition.

Molecule `CCOCCOCCOc1ccc(CCC[C@@H](C(=O)O)N2CCN([C@H](CO)C(=O)[O-])CCN([C@@H](CO)C(=O)[O-])CCN([C@@H](CO)C(=O)[O-])CC2)cc1.[Gd+3]` [Example 50, gadolinium (2S,2'S)-2,2′-{7-[(1S)-1-carboxy-4-{4-[2-(2-ethoxyethoxy)ethoxy]phenyl}butyl]-10-[(1R)-1-carboxylato-2-hydroxyethyl]-1,4,7,10-tetraazacyclododecane-1,4-diyl}bis(3-hydroxypropanoate)] returned a Solubility in data set [5] of over 19 mM. Moreover, the “Inhibition Rifampicine” value at OATP1B1 amounted to 84 % inhibition; on OATP1B3 it was 93 % inhibition.
